Target: T1, human CCR4 (Homo sapiens, UniProt P51679)
T1 construct: expressed in transfected cells; host or cells: CHO-dhfr(-)
T1 sequence (P51679 1-360): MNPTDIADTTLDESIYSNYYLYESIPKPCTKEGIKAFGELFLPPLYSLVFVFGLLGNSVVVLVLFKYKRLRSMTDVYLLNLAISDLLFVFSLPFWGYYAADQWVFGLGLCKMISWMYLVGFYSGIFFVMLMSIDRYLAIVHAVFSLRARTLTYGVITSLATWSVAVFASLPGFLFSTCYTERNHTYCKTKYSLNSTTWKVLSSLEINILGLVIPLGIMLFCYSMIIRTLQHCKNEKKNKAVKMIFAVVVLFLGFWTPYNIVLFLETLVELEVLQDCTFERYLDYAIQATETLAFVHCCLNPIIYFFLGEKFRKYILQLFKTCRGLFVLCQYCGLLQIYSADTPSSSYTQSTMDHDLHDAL
Assay: Inhibition test on activity of MDC mediated by CCR4 (MDC-induced transient increase of Ca ions) in CCR4/CHO cells
Type: cell-based
Conditions: in the presence of 0.3% BSA; human MDC 10 nM; CCR4/CHO cell; read-out: IC50 value (inhibition of Ca2+ transient increase by MDC)
Procedure: Human bone marrow cell cDNA was prepared using Marathon cDNA amplification kit (manufactured by Clontech). PCR primers hCCR4XbaI-F1 (SEQ ID NO:1) and hCCR4XbaI-R1 (SEQ ID NO:2) were designed based on the sequence of GenBankX85740.
Using the human bone marrow cell cDNA as the template and using Ex Taq (manufactured by Takara), a PCR reaction (2 minutes at 95° C.→[30 seconds at 95° C., 45 seconds at 60° C., 1 minute at 72° C.]×35 times) was carried out. The thus amplified PCR product was subjected to 1% agarose gel electrophoresis, purified using QIAquick Gel Extraction Kit (manufactured by QUIAGEN) and then digested with a restriction enzyme XbaI. […]
The thus established human CCR4 stably overexpressing CHO cell (CCR4/CHO cell) was suspended in Ham's F-12 medium and FBS (10%) and dispensed into a 96-well plate at 3.0×10^4 cells/well. […] Transient increase in the intracellular Ca^2+ concentration induced by the human MDC was measured using a Ca^2+ detector for 96-well (manufactured by Hamamatsu Photonics), and inhibition ratio (%) of the test compound was calculated by the following equation: Inhibition ratio=[(Ec−Ea)/Ec]×100 • Ec: measured value of Ca^2+ transient increase by MDC; and • Ea: measured value of Ca^2+ transient increase by MDC when a test compound was added […]

Row | SMILES | IC50
1 | COc1ccc(COc2cc(Br)cnc2NS(=O)(=O)c2ccc(C)cc2)cc1OCCN(C)C [Example 2(2), N-[5-bromo-3-({3-[2-(dimethylamino)ethoxy]-4-methoxybenzyl}oxy)pyridin-2-yl]-4-methylbenzenesulfonamide] | 230 nM
2 | Cc1cnc(NS(=O)(=O)c2ccccc2Cl)c(OCc2ccc(Cl)c(OCC3CCN(C)CC3)c2)n1 [Example 6(1)] | 80 nM

Source: patent US7732442B2 (Ono Pharmaceutical Co., Ltd., priority 2003, dated 2010)
